Reference: patent US11858958B2, “Blank liposome with ginsenoside Rg3 or its analog as membrane materials and preparations and uses thereof” (Shanghai Ginsome Pharmatech Co., Ltd., priority 2018, dated 2024)
Where “and” joins values, the source holds several entries; their conditions need not be identical. Equal entries are not always repeated.

Legend:
[1] = test system: human breast cancer cell 4T1; test: In vivo drug efficacy assay, relative tumor volume (Rh2/PTX groups); design: species or system nude mice; conditions: 4T1, tail vein 30 mg/kg
Method: To evaluate the drug efficacy in vivo, 45 subcutaneous tumor-bearing nude mice were randomized into 5 treatment groups (9 in each group) and intravenously injected with PBS solution (control group), ginsenoside Rh2 (Rh2 group), ginsenoside Rh2 blank liposome (Rh2-Blank group), conventional paclitaxel cholesterol liposome (PTX-Cho-Lipo group) and ginsenoside Rh2 paclitaxel liposome (PTX-Rh2-Gipo group) via tail vein at a dose of 30 mg/kg. The changes of body weights of mice in each group were recorded every 2 days, and the longest diameter and the shortest diameter of tumors were measured with vernier calipers. The tumor volume was calculated by the following formula: V=(dmax×dmin^2)/2, wherein dmin and dmax are respectively the shortest diameter and the longest diameter (mm) of the tumor; a relative tumor volume (RTV) was calculated according to the measurement results, by the formula: RTV=TVn/TV0, […], TV0 is the volume of the tumor measured at day zero (the administration day).

[2] = test system: human breast cancer cell line (4T1); test: In vitro drug efficacy assay, cell survival rate (Rh2/PTX groups)
Method: Logarithmically growing tumor cells were collected and resuspended in DMEM complete medium supplemented with 10% fetal bovine serum, 100 U/ml penicillin and 100 μg/ml streptomycin to a final cell density of 4×10^4 cells/ml. Then, 200 μl cell suspension solution was seeded into each well of a 96-well plate (with a concentration of 8×10^3 cells/well) and the plate was cultured in a CO2 cell culture incubator at 37° C. […] The group without replacing DMEM complete medium by anti-cancer drug solution was used as negative control. For each concentration group, 4 replicates were set up. The whole experiment was independently repeated 3 times. The cells were continuously cultured in a CO2 cell culture incubator at 37° C. […] Then discarded the supernatant, added 150 μl DMSO into each well, and shaked the plate for 10 min. The absorbance was measured at 490 nm using a microplate reader (Tecan infinite M 200 TECAN, Switzerland). The cell survival rate is calculated according to the following formula:

[3] = in words; cited from earlier work
rat C6 glioma cells = test: In vitro drug efficiency assay, survival rate of glioma cells; format: cell-based
[4] = test system: human gastric cancer cell (BGC-823); test: In vivo pharmacological efficacy assay, relative tumor volume; design: species or system nude mice
Method: 2. In vivo pharmacological efficacy assay: A total of 72 subcutaneous tumor-bearing nude mice were randomerized into 8 groups (9 in each group), and intravenously injected with PBS solution (Control group,), Rg3, Rg3-blank, PTX-Cho-Lipo, Abraxane, PTX-Rg5-Gipo, PTX-Rg3-Gipo and PTX-Rh2-Gipo, via tail vein at a dose of 10 mg·kg^1. The changes of mice body weights in each group were recorded every 2 days, and the longest diameter and the shortest diameter of tumors were measured with vernier calipers. The tumor volume is calculated by the following formula: V=(dmax×dmin^2)/2, wherein dmin and dmax are respectively the shortest diameter and the longest diameter (mm) of the tumor; a relative tumor volume (RTV) is calculated according to the measurement results by the formula: RTV=TVn/TV0,
wherein TVn is the volume of the tumor measured every 2 days, TV0 is the volume of the tumor measured at day zero (the administration day).

[5] = test system: in-situ glioma model (C6 cells); test: Survival curve and median survival day; format: in vivo, nude mice
[6] = test system: human breast cancer cell line (4T1); test: In vitro cytotoxicity studies (DTX groups); format: cell-based
Method: For each concentration group, 4 replicates were set up. The whole experiment was independently repeated 3 times.
The in vitro cytotoxicity was evaluated using human breast cancer cell line (4T1).

## CC(C)=CCC[C@](C)(O)[C@H]1CC[C@]2(C)[C@@H]1[C@H](O)C[C@@H]1[C@@]3(C)CC[C@H](O[C@@H]4O[C@H](CO)[C@@H](O)[C@H](O)[C@H]4O)C(C)(C)[C@@H]3CC[C@]12C [Rh2, ginsenoside Rh2]
[1]; time 0 d
  Relative tumor volume: 100.00
[1]; time 3 d
  Relative tumor volume: 200.94
[1]; time 6 d
  Relative tumor volume: 316.69
[1]; time 9 d
  Relative tumor volume: 276.04
[1]; time 12 d
  Relative tumor volume: 400.20
[1]; time 15 d
  Relative tumor volume: 473.53
[1]; time 18 d
  Relative tumor volume: 510.20
[1]; time 21 d
  Relative tumor volume: 898.52
[2]; 4T1, C 0.00366 μM
  Cell Viability: 104.04
[2]; 4T1, C 0.01097 μM
  Cell Viability: 92.85
[2]; 4T1, C 0.03292 μM
  Cell Viability: 94.47
[2]; 4T1, C 0.09877 μM
  Cell Viability: 99.90
[2]; 4T1, C 0.29630 μM
  Cell Viability: 98.07
[2]; 4T1, C 0.88889 μM
  Cell Viability: 96.04
[2]; 4T1, C 2.66667 μM
  Cell Viability: 104.25
[2]; 4T1, C 8.00000 μM
  Cell Viability: 100.73
[2]; in words
  activity in vitro against human breast cancer cells (4T1): low activity
[3]
  solubility in diethyl ether and chloroform: insoluble in diethyl ether and chloroform
  solubility in methanol and ethanol: soluble in methanol and ethanol
  solubility in water: poorly soluble in water

## CC(C)=CCC[C@](C)(O)[C@H]1CC[C@]2(C)[C@@H]1[C@H](O)C[C@@H]1[C@@]3(C)CC[C@H](O[C@@H]4O[C@H](CO)[C@@H](O)[C@H](O)[C@H]4O[C@@H]4O[C@H](CO)[C@@H](O)[C@H](O)[C@H]4O)C(C)(C)[C@@H]3CC[C@]12C [Rg3, Ginsenoside 20(S)-Rg3]
Rat C6 glioma cells; C6, C 0.001 μg/ml (Table 10)
  Cell Viability: 100
Rat C6 glioma cells; C6, C 0.003 μg/ml (Table 10)
  Cell Viability: 98.82
Rat C6 glioma cells; C6, C 0.01 μg/ml (Table 10)
  Cell Viability: 92.42
Rat C6 glioma cells; C6, C 0.03 μg/ml (Table 10)
  Cell Viability: 92.03
Rat C6 glioma cells; C6, C 0.08 μg/ml (Table 10)
  Cell Viability: 94.23
Rat C6 glioma cells; C6, C 0.25 μg/ml (Table 10)
  Cell Viability: 95.43
Rat C6 glioma cells; C6, C 0.74 μg/ml (Table 10)
  Cell Viability: 92.822
Rat C6 glioma cells; C6, C 2.22 μg/ml (Table 10)
  Cell Viability: 96.16
Rat C6 glioma cells; C6, C 6.67 μg/ml (Table 10)
  Cell Viability: 95.02
Rat C6 glioma cells; C6, C 20 μg/ml (Table 10)
  Cell Viability: 89.02
[4]; BGC-823, tail vein 10 mg·kg^1, time 1 d
  Relative tumor volume: 166.88
[4]; BGC-823, tail vein 10 mg·kg^1, time 3 d
  Relative tumor volume: 267.38
[4]; BGC-823, tail vein 10 mg·kg^1, time 5 d
  Relative tumor volume: 317.96
[4]; BGC-823, tail vein 10 mg·kg^1, time 7 d
  Relative tumor volume: 417.96
[4]; BGC-823, tail vein 10 mg·kg^1, time 9 d
  Relative tumor volume: 717.96
[4]; BGC-823, tail vein 10 mg·kg^1, time 11 d
  Relative tumor volume: 1340.69
[4]; BGC-823, tail vein 10 mg·kg^1, time 13 d
  Relative tumor volume: 1636.89
[4]; BGC-823, tail vein 10 mg·kg^1, time 15 d
  Relative tumor volume: 2034.43
[4]; BGC-823, tail vein 10 mg·kg^1, time 17 d
  Relative tumor volume: 2034.43
[4]; BGC-823, tail vein 10 mg·kg^1, time 19 d
  Relative tumor volume: 2034.43
[4]; BGC-823, tail vein 10 mg·kg^1, time 21 d
  Relative tumor volume: 2034.43
[4]; BGC-823, tail vein 10 mg·kg^1, time 23 d
  Relative tumor volume: 2034.43
[3]
  solubility in diethyl ether and chloroform: insoluble in diethyl ether and chloroform
  solubility in methanol and ethanol: soluble in methanol and ethanol
  solubility in water: poorly soluble in water
[5]; tail vein 10 mg·kg^−1
  Median survial: 29 days and 32 days
[5]; tail vein 10 mg·kg^−1, Time 12 d
  number of survived mice: 10
[5]; tail vein 10 mg·kg^−1, Time 14 d
  number of survived mice: 10
[5]; tail vein 10 mg·kg^−1, Time 16 d
  number of survived mice: 9
[5]; tail vein 10 mg·kg^−1, Time 18 d
  number of survived mice: 9
[5]; tail vein 10 mg·kg^−1, Time 20 d
  number of survived mice: 8
[5]; tail vein 10 mg·kg^−1, Time 22 d
  number of survived mice: 7
[5]; tail vein 10 mg·kg^−1, Time 24 d
  number of survived mice: 7
[5]; tail vein 10 mg·kg^−1, Time 26 d
  number of survived mice: 6
[5]; tail vein 10 mg·kg^−1, Time 28 d
  number of survived mice: 5
[5]; tail vein 10 mg·kg^−1, Time 30 d
  number of survived mice: 4
[5]; tail vein 10 mg·kg^−1, Time 32 d
  number of survived mice: 4
[5]; tail vein 10 mg·kg^−1, Time 34 d
  number of survived mice: 3
[5]; tail vein 10 mg·kg^−1, Time 36 d
  number of survived mice: 3
[5]; tail vein 10 mg·kg^−1, Time 38 d
  number of survived mice: 2
[5]; tail vein 10 mg·kg^−1, Time 40 d
  number of survived mice: 1
[5]; tail vein 10 mg·kg^−1, Time 42 d
  number of survived mice: 0
[5]; tail vein 10 mg·kg^−1, Time 44 d
  number of survived mice: 0
[5]; tail vein 10 mg·kg^−1, Time 46 d
  number of survived mice: 0
[5]; tail vein 10 mg·kg^−1, Time 48 d
  number of survived mice: 0
[5]; tail vein 10 mg·kg^−1, Time 50 d
  number of survived mice: 0
[5]; tail vein 10 mg·kg^−1, Time 52 d
  number of survived mice: 0
[5]; tail vein 10 mg·kg^−1, Time 54 d
  number of survived mice: 0
[5]; tail vein 10 mg·kg^−1, Time 56 d
  number of survived mice: 0
[5]; tail vein 10 mg·kg^−1, Time 58 d
  number of survived mice: 0
[5]; tail vein 10 mg·kg^−1, Time 60 d
  number of survived mice: 0
[5]; tail vein 10 mg·kg^−1, Time 62 d
  number of survived mice: 0

## CC(=O)O[C@@]12CO[C@@H]1C[C@H](O)[C@@]1(C)C(=O)[C@H](O)C3=C(C)[C@@H](OC(=O)[C@H](O)[C@@H](NC(=O)OC(C)(C)C)c4ccccc4)C[C@@](O)([C@@H](OC(=O)c4ccccc4)[C@H]21)C3(C)C [DTX, docetaxel]
[6]; 4T1, Concentration 3.84E−05 μg/ml
  Cell viability(%): 83.55%
[6]; 4T1, Concentration 7.68E−06 μg/ml
  Cell viability(%): 86.66%
[6]; Homo sapiens, 4T1, Concentration 0.00019 μg/ml
  viability at 0.00019 µg/mL: 72.5%
[6]; Homo sapiens, 4T1, Concentration 0.00096 μg/ml
  viability at 0.00096 µg/mL: 61.6%
[6]; Homo sapiens, 4T1, Concentration 0.0048 μg/ml
  viability at 0.0048 µg/mL: 50.9%
[6]; Homo sapiens, 4T1, Concentration 0.024 μg/ml
  viability at 0.024 µg/mL: 49.9%
[6]; Homo sapiens, 4T1, Concentration 0.12 μg/ml
  viability at 0.12 µg/mL: 46.3%
[6]; Homo sapiens, 4T1, Concentration 0.6 μg/ml
  viability at 0.6 µg/mL: 48.9%
[6]; Homo sapiens, 4T1, Concentration 3 μg/ml
  viability at 3 µg/mL: 51.9%
